Assay results published in US20090312316A1, “NOVEL COMPOUNDS” (priority 2006, published 2009).

What was measured:
[1] = system: panel of 12 human tumour cell lines; assay: monolayer proliferation assay (modified propidium iodide assay) in a panel of 12 human tumour cell lines; assay type: cell-based; details: for Mean % T/C at 1 μM / Mean % T/C at 10 μM: mean growth across 12 cell-line panel, treated/control x 100, 4 days exposure; for Mean percentage Inhibition of cancer cell lines at 1 uM: 100 minus mean %T/C at 1 uM of Table III
Experimental: In vitro evaluation of compounds for anticancer activity in a panel of 12 human tumour cell lines in a monolayer proliferation assay was carried out at the Oncotest Testing Facility, Institute for Experimental Oncology, Oncotest GmbH, Freiburg.
The Oncotest cell lines were established from human tumor xenografts as described by Roth et al., (1999). The origin of the donor xenografts was described by Fiebig et al., (1999). Other cell lines were either obtained from the NCI (H460, SF-268, OVCAR-3, DU145, MDA-MB-231, MDA-MB-468) or purchased from DSMZ, Braunschweig, Germany (LNCAP).
All cell lines, unless otherwise specified, were grown at 37° C. in a humidified atmosphere (95% air, 5% CO2) in a ‘ready-mix’ medium containing RPMI 1640 medium, 10% fetal calf serum, and 0.1 mg/mL gentamicin (PAA, Cölbe, Germany).
A modified propidium iodide assay was used to assess the effects of the test compound(s) on the growth of human tumour cell lines (Dengler et al., (1995)).
Briefly, cells were harvested from exponential phase cultures by trypsinization, counted and plated in 96 well flat-bottomed microtitre plates at a cell density dependent on the cell line (5-10.000 viable cells/well). After 24 h recovery to allow the cells to resume exponential growth, 0.010 mL of culture medium (6 control wells per plate) or culture medium containing macbecin were added to the wells. Each concentration was plated in triplicate. Compounds were applied in two concentrations (0.001 mM and 0.01 mM). Following 4 days of continuous exposure, cell culture medium with or without test compound was replaced by 0.2 mL of an aqueous propidium iodide (PI) solution (7 mg/L). To measure the proportion of living cells, cells were permeabilized by freezing the plates. After thawing the plates, fluorescence was measured using the Cytofluor 4000 microplate reader (excitation 530 nm, emission 620 nm), giving a direct relationship to the total number of viable cells.
The mean growth inhibition across the 12 cell-line panel was expressed as treated/control×100 (% T/C).
In vitro evaluation of the test compounds for anticancer activity in a panel of human tumour cell lines in a monolayer proliferation assay was carried out as described in the general methods using a modified propidium iodide assay. This screen may be used as a model for the toxic effect of compounds in inhibiting general cell growth.

endothelial cells = details: with respect to borrelidin; WO 01/09113; cited from earlier work
[2] = Cleavage studies in rat blood to give the parent acid 6; assay type: in vitro ADME; details: rat blood (EDTA), 0.01 mg/mL, 37° C.; for cleavage to give the parent compound 6: up to 180 minutes
Experimental: The sample was diluted to a volume of 1 mL by addition of 0.1 M aqueous KH2PO4. […] An Oasis MAX cartridge (1 cc/30 mg) was conditioned with 1 mL MeOH and 1 mL water successively. The supernatant was transferred to the conditioned cartridge at a flow rate of 1-2 mL/min. […] The extracts were transferred to autosampler vials and immediately analysed by LC/MS. […] LCMS was performed on a Bruker Daltonics Esquire 3000+ mass spectrometer equipped with an electrospray source coupled to the HPLC. […] Injection volume: 0.05 mL. HPLC was performed on a Waters Symmetry C8 3.5 micron column, 50 mm×2.1 mm, running a mobile phase of: mobile phase A: 0.1% formic acid in water; mobile phase B: 0.1% Formic acid in acetonitrile; flow rate: 1 mL/minute. […] Fragmentation of this molecular species results in a spectrum with intense ions at m/z 271 and 412. The daughter ion at m/z 412 can be ideally selected for quantification.

CAM vasculature = assay: Chick chorioallantoic membrane (CAM) assay of anti-angiogenic activity; assay type: in vivo; details: for Ratio of inhibition of CAM vasculature at 25 ng/CAM to in vitro cancer cell inhibition at 1 uM: 25 ng/CAM versus 1 uM in cancer cell panel; for Mean blood vessel density score: angiogenesis score up to 32 (highest density), 0 = no angiogenesis, mean of ten experiments; for anti-angiogenic therapeutic index (ratio of anti-angiogenesis to general cell inhibition), in words: as compared to 1 and 6
Experimental: Fresh fertile eggs were be incubated for 3 days in a standard egg incubator at 37° C. for 3 days. On Day 3, eggs were cracked under sterile conditions and embryos were placed into 20×100 mm plastic plates and cultivated at 37° C. in an embryo incubator with a water reservoir on the bottom shelf. Air was continuously bubbled into the water reservoir using a small pump so that the humidity in the incubator was kept constant. […] Embryos were returned to the incubator after addition of test material. Control embryos received 10 μL of vehicle alone. […] The blood vessel density was semi-quantitatively measured using an angiogenesis scoring system, in that exponential numbers 1 to 32 were used to indicate number of blood vessels present at the treatment sites on the CAM. Number 32 represented the highest density and 0 represented no angiogenesis. The percent of inhibition at each dosing site was calculated using the score recorded for that site divided by the mean score obtained from the appropriate control samples for each individual experiment. The percent of inhibition for each dose of a given compound was calculated by pooling all results obtained for that dose.

[3] = system: mouse colon adenocarcinoma cells; details: subtoxic dose; cited from earlier work
[4] = system: Lewis lung adenocarcinoma; details: rats; intraperitoneal and per os administration at subtoxic doses; cited from earlier work

| Compound | Mean % T/C at 1 μM [1] | Mean % T/C at 10 μM [1] | inhibition of cell growth at 1 μM (in words) [1] | other results |
| --- | --- | --- | --- | --- |
| 17-des(cyclopentane-2-carboxylic acid)-17-(cyclobutane-2-carboxylic acid)borrelidin (2-(2-hydroxyethyl)pyridine ester [Compound 8] | 40 % T/C | 6 % T/C | – | – |
| CC1CC(C)CC(C)C(O)C(C#N)=CC=CCC(C2CCC2C(N)=O)OC(=O)CC(O)C(C)C1 (stereo not drawn) [Compound 14, 17-des(cyclopentane-2-carboxylic acid)-17-(cyclobutane-2-carboxylic acid)borrelidin amide] | 92 % T/C | 26 % T/C | little or no inhibition of cell growth | – |
| CC1CC(C)CC(C)C(O)C(C#N)=CC=CCC(C2CCCC2C(=O)OCCc2ccccn2)OC(=O)CC(O)C(C)C1 (stereo not drawn) [borrelidin-(2-pyridyl)-ethyl ester] | – | – | – | selectivity index for capillary formation inhibitory activity versus cell proliferation (endothelial cells): 7.5 fold |
| C[C@@H]1C[C@H](C)C[C@H](C)[C@@H](O)CC(=O)O[C@H]([C@@H]2CCC[C@H]2C(=O)NCCN2CCOCC2)C/C=C/C=C(/C#N)[C@H](O)[C@@H](C)C1 [borrelidin-morpholinoethyl amide] | – | – | – | selectivity index for capillary formation inhibitory activity versus cell proliferation (endothelial cells): 6 fold |
| borrelidin-amide | – | – | – | selectivity index for capillary formation inhibitory activity versus cell proliferation (endothelial cells): 37 fold |
| CC1CC(C)CC(C)C(O)C(C#N)=CC=CCC(C2CCC2C(=O)NCc2ccccn2)OC(=O)CC(O)C(C)C1 (stereo not drawn) [Compound 12, 17-des(cyclopentane-2-carboxylic acid)-17-(cyclobutane-2-carboxylic acid)borrelidin (2-aminomethyl)pyridine amide] | 87 % T/C | 15 % T/C | little or no inhibition of cell growth | – |
| CC1CC(C)CC(C)C(O)C(C#N)=CC=CCC(C2CCC2C(=O)NCc2cccnc2)OC(=O)CC(O)C(C)C1 (stereo not drawn) [Compound 11, 17-des(cyclopentane-2-carboxylic acid)-17-(cyclobutane-2-carboxylic acid)borrelidin (3-aminomethyl)pyridine amide] | 97 % T/C | 20 % T/C | little or no inhibition of cell growth | – |
| C[C@@H]1C[C@H](C)C[C@H](C)[C@@H](O)CC(=O)O[C@H]([C@@H]2CCC[C@H]2C(=O)OCCN2CCOCC2)C/C=C/C=C(/C#N)[C@H](O)[C@@H](C)C1 [borrelidin-morpholinoethyl ester] | – | – | – | selectivity index for capillary formation inhibitory activity versus cell proliferation (endothelial cells): 60 fold |
| CC1CC(C)CC(C)C(O)C(C#N)=CC=CCC(C2CCC2C(=O)NCc2ccncc2)OC(=O)CC(O)C(C)C1 (stereo not drawn) [Compound 10, 17-des(cyclopentane-2-carboxylic acid)-17-(cyclobutane-2-carboxylic acid)borrelidin (4-aminomethyl)pyridine amide] | 104 % T/C | 57 % T/C | little or no inhibition of cell growth | – |
| CC1CC(C)CC(C)C(O)C(C#N)=CC=CCC(C2CCC2C(=O)NCCN2CCOCC2)OC(=O)CC(O)C(C)C1 (stereo not drawn) [Compound 9, 17-des(cyclopentane-2-carboxylic acid)-17-(cyclobutane-2-carboxylic acid)borrelidin (4-(2-aminoethyl))morpholine amide] | 101 % T/C | 43 % T/C | little or no inhibition of cell growth | Mean percentage Inhibition of cancer cell lines at 1 uM [1]: 0%; cleavage to give the parent compound 6 [2]: did not cleave; Mean percentage inhibition of CAM vasculature at 25 ng/CAM (CAM vasculature): 60%; Ratio of inhibition of CAM vasculature at 25 ng/CAM to in vitro cancer cell inhibition at 1 uM (CAM vasculature): >60; Mean blood vessel density score (CAM vasculature): 6.8; anti-angiogenic therapeutic index (ratio of anti-angiogenesis to general cell inhibition), in words (CAM vasculature): especially good |
| CC1CC(C)CC(C)C(O)CC(=O)OC(C2CCCC2C(=O)NCc2cccnc2)C(C#N)=CC=CCC(O)C(C)C1 (stereo not drawn) [borrelidin-(3-picolylamide) derivative, borrelidin-(3-picolylamide)] | – | – | – | metastasis-forming ability of mouse colon adenocarcinoma cells transplanted into mouse spleen [3]: considerably decreased; increase of micrometastases [4]: inhibit very considerably |
| 17-des(cyclopentane-2-carboxylic acid)-17-(cyclobutane-2-carboxylic acid)borrelidin (4-(2-hydroxyethyl))morpholine ester [Compound 7] | 36 % T/C | 8 % T/C | – | Mean percentage Inhibition of cancer cell lines at 1 uM [1]: 64%; half-life for the cleavage to parent compound 6 [2]: ~12 min; cleavage to give the parent compound 6 [2]: rapidly cleaved; Mean percentage inhibition of CAM vasculature at 25 ng/CAM (CAM vasculature): 54%; Ratio of inhibition of CAM vasculature at 25 ng/CAM to in vitro cancer cell inhibition at 1 uM (CAM vasculature): 0.84; Mean blood vessel density score (CAM vasculature): 7.8; anti-angiogenic therapeutic index (ratio of anti-angiogenesis to general cell inhibition), in words (CAM vasculature): improved |
| CC1CC(C)CC(C)C(O)C(C#N)=CC=CCC(C2CCC2C(=O)NCCc2cccnc2)OC(=O)CC(O)C(C)C1 (stereo not drawn) [Compound 13, 17-des(cyclopentane-2-carboxylic acid)-17-(cyclobutane-2-carboxylic acid)borrelidin (3-(2-aminoethyl))pyridine amide] | 97 % T/C | 37 % T/C | little or no inhibition of cell growth | cleavage to give the parent compound 6 [2]: did not cleave |
| C[C@@H]1C[C@H](C)C[C@H](C)[C@@H](O)CC(=O)O[C@@H](C2CC[C@H]2C(=O)O)C/C=C/C=C(/C#N)[C@H](O)[C@@H](C)C1 (stereo partly drawn) [Compound 6, 17-des(cyclopentane-2-carboxylic acid)-17-(cyclobutane-2-carboxylic acid)borrelidin] | 33 % T/C | 8 % T/C | – | inhibition at 1 µM ([1]; Homo sapiens, read-out: Mean percentage Inhibition of cancer cell lines at 1 uM): 67%; Mean percentage inhibition of CAM vasculature at 25 ng/CAM (CAM vasculature): 51%; Ratio of inhibition of CAM vasculature at 25 ng/CAM to in vitro cancer cell inhibition at 1 uM (CAM vasculature): 0.76; Mean blood vessel density score (CAM vasculature): 8.2 |
